Results: patent publication US11400082B2, “Methods of treating elevated plasma cholesterol” (Montréal Heart Institute, priority 2017, dated 2022)

Legend:
LDLR protein = assay: Western blot analysis, relative quantification of LDLR protein levels; format: cell-based, human; conditions: overnight, hepatoma cells (HepG2, FIG. 13), normalized to actin, vehicle (DMSO) = 1
Method: For sterol-regulated conditions, HepG2 cells were incubated in 5% LPDS, 50 μM mevastatin, and 50 μM mevalonolactone in the absence (-sterols) or presence of 1 μg/ml 25-hydroxycholesterol and 10 μg/ml cholesterol (+sterols). For inhibitor treatments HepG2 cells were treated with DMSO or 10 μM compounds 2 in combination with U0126 (25 μM, catalog no. 9903, Cell Signaling Technology), Cycloheximide (CHX; 20 μg/ml, catalog no. C7698, Sigma-Aldrich), PD153035 (20 μM, catalog no. 14879, Cayman Chemical), bisindolylmaleimide I (BIM; 10 μM, catalog no. 13298, Cayman Chemical), H-89 (10 μM, catalog no. 10010556, Cayman Chemical), Dorsomorphin (5 μM, catalog no. 11967, Cayman Chemical) or 5-Azacytidine (10 μM, catalog no. A2385, Sigma-Aldrich).
Treated cells from Example 28 were washed three times in phosphate-buffered saline (PBS) and lysed in radioimmune precipitation assay buffer (50 mM Tris/HCl, pH 8.0, 1% (v/v) Nonidet P-40, 0.5% sodium deoxycholate, 150 mM NaCl, and 0.1% (v/v) SDS) supplemented with a complete protease inhibitor mixture (catalog no. 11 697 498 001, Roche Applied Science). Proteins were separated by 8% SDS polyacrylamide gel electrophoresis, blotted on nitrocellulose membranes (Bio-Rad), and blocked for 1 h in Tris-buffered saline-Tween 20 (TBS-T; 50 mM Tris-HCl, pH 7.5, 150 mM NaCl, 0.1% Tween 20) containing 5% nonfat dry milk. Membranes were then incubated overnight in TBS-T supplemented with 1% nonfat milk and the indicated antibodies; goat anti-human LDLR (1:1000; catalog no. AF2148, R&D Systems), rabbit anti-actin (1:5000; catalog no. A2066, Sigma-Aldrich). Appropriate HRP-conjugated secondary antibodies (1:10,000; GE healthcare) were used for detection using the Western Lightning Ultra chemiluminescence kit (catalog no. NEI112001EA, PerkinElmer Life Sciences) and BioFlex EC Films (catalog no. CLEC810, InterScience). Unsaturated films were numerized using the high resolution CanoScan 9000F scanner and corresponding bands were quantified using the ImageJ software (NIH). Relative quantification of LDLR protein levels were normalized to that of actin and compared to vehicle (DMSO) herein determined as 1.

[1] = Cell viability assay (MTT); format: cell-based; conditions: human; overnight incubation, viability relative to DMSO
Method: Following incubation, media was replaced and cells incubated for 4 h with 100 μL of phenol red-free DMEM containing 0.5 mg/mL of MTT (3-[4,5-dimethylthiazol-2-yl]-2,5-diphenyltetrazolium bromide; thiazolyl blue; catalog no. M5655, Sigma-Aldrich). Afterwards, media was removed and converted dye solubilized with 100 μL acidic isopropanol (0.06 N) and absorbance measured at a wavelength of 570 nm with background subtraction at 650 nm. Arbitrary units of cell viability of a given example were determined relative to equal volume of DMSO (vehicle) for each concentration used.

in vitro = conditions: pH 7.4; for -k: 1 μM; for half-life at 1 μM / microsomal CLint at 1 μM: microsomes
Method: Pooled human liver microsomes (HLM; Cat #X008067 lot IHG) and pooled male Sprague Dawley rat liver microsomes (RLM; Cat #M00001 Lot NNK) were purchased from BioreclamationIVT, Baltimore, Md. NADPH (Cat #N1630, 95% HPLC) and DMSO (GC grade) were purchased from Sigma-Aldrich, Canada. Potassium phosphate buffer (100 mM) with magnesium chloride pH 7.4 was prepared freshly. […] Reactions were initiated by adding NADPH (final concentration 1 mM) in all the wells. Reactions without NADPH were also incubated (final point only) to rule out non-NADPH metabolism or chemical instability in the incubation buffer. Reactions were terminated at each time point (0, 5, 10, 20, 30, 45 and 60 min) by transferring 50 μL in a new 96 well plate and adding 100 μl of acetonitrile containing an internal standard (labetalol at 2 μM). The plates were centrifuged at 4000 rpm for 5 min, and an aliquot of supernatant was diluted with one volume of water+0.1% formic acid before analysis by LC-MS/MS. Reference samples were also prepared at concentrations between 0.002 and 2 μM in buffer containing microsomes, by adding the diluted solutions of the compound to the buffer containing microsomes quenched with 2 volume of acetonitrile containing the internal standard (whereas the incubation T0 is obtained by quenching the microsomes containing the compound, then adding NADPH). Samples were monitored for parent compound disappearance in Multi Reaction Monitoring (MRM) mode using LC-MS/MS. The peak area ratios of analyte versus internal standard compared to the calibration curve were used to calculate concentration at each time point. The elimination constant (ke, min-1) was obtained from the log-linear regression of the concentration (y) versus time (t). The half-life was calculated as T½ (min)=0.693/ke. The microsomal intrinsic clearance (Clint, μL/min/mg of protein) was calculated by the following equation: […]

C57BL/6 mice = assay: Efficacy and safety in hypercholesterolemic animal models, C57BL/6 mice; format: in vivo
Method: (§1) For in vivo proof-of-concept animal studies, wild-type C57BL/6 male mice (˜25 g; obtained from Charles River Laboratories) or Golden Syrian (˜120 g obtained from Envigo++) were housed in the 12 hour light/12 hour dark cycle, temperature and humidity controlled MHI animal facility. […] TD.88137, Envigo) for 14 days. […] Equivalent volume of vehicle containing corresponding formulations were orally administered to mice daily and designated as placebo (vehicle). […] Total cholesterol (catalog no. 439-17501, Wako) was quantified in total plasma and in each 0.3 mL collected fractions or in-line (Lipidomics Core of The Group on Molecular and Cell Biology of Lipids, University of Alberta) according to the manufacturer's instructions. Relative quantitation of AUC of total cholesterol corresponding to non-HDL lipoprotein positive fractions obtained from FPLC profiles are included in Table 3. Serum aspartate aminotransferase (AST) and alanine transaminase (ALT) were measured by the Montreal Heart Institute biochemical clinical chemistry platform according to manufacturer's recommendations.

Golden Syrian = assay: Efficacy and safety in hypercholesterolemic animal models, Golden Syrian; format: in vivo; conditions: 10 days
Method: as §1

[2] = C57BL/6, HFD, 40 mpk/d, 10 days, animals out of n
[3] = HFD, 40 mpk/d, animals out of n

**Q.** For `O=C(NO)c1ncc(COc2ccc(F)cc2)c(CO)c1O` [Compound 2, 5-(4-fluoro-phenoxymethyl)-3-hydroxy-4-hydroxymethyl-pyridine-2-carboxylic acid hydroxyamide], which “LDLR Fold Change 10 nM” value (LDLR protein; 10 nM) is on record?
**A.** 2

**Q.** And the “LDLR Fold Change 10 μM” value (LDLR protein; 10 μM)?
**A.** 6.3

**Q.** And the CC50 [1]?
**A.** 50 µM

**Q.** And the “-k” value (in vitro; human)?
**A.** 0.000703 ± 1.9e-05 min⁻¹

**Q.** And the half-life at 1 μM (in vitro; human)?
**A.** 986 ± 27 min

**Q.** What about the microsomal CLint at 1 μM (in vitro; human) of the same compound?
**A.** 1.17 ± 0.03 µL/min/mg

**Q.** What about the “-k” value (in vitro; male, Sprague Dawley, rat) of the same compound?
**A.** 0.00126 ± 0.00019 min⁻¹

**Q.** And the half-life at 1 μM (in vitro; male, Sprague Dawley, rat)?
**A.** 404 ± 28 min

**Q.** And the microsomal CLint at 1 μM (in vitro; male, Sprague Dawley, rat)?
**A.** 6.19 ± 0.42 µL/min/mg

**Q.** And the “LDL-C (%) (FPLC TC) (pooled plasma)” value (C57BL/6 mice; C57BL/6, Chow, 25 mpk/d oral gavage, 3 days, n 3)?
**A.** −31%

**Q.** And the “LDL-C (%) (FPLC TC) (pooled plasma)” value (C57BL/6 mice; C57BL/6, HFD, 5 mpk/d oral gavage, 10 days, n 4)?
**A.** −3 ± 8%

**Q.** And the “LDL-C (%) (FPLC TC) (pooled plasma)” value (C57BL/6 mice; C57BL/6, HFD, 25 mpk/d oral gavage, 10 days, n 4)?
**A.** −28 ± 8%

**Q.** What about the “LDL-C (%) (FPLC TC) (pooled plasma)” value (C57BL/6 mice; C57BL/6, HFD, 40 mpk/d oral gavage, 10 days, n 4) of the same compound?
**A.** −35 ± 2%

**Q.** What about the “ALT (3 × ULN)” value (C57BL/6 mice; [2]) of the same compound?
**A.** 0/4

**Q.** What about the “AST (3 × ULN)” value (C57BL/6 mice; [2]) of the same compound?
**A.** 0/4

**Q.** What about the “LDL-C (%) (FPLC TC) (pooled plasma)” value (Golden Syrian; Chow, 40 mpk/d, n 3) of the same compound?
**A.** −12%

**Q.** And the “LDL-C (%) (FPLC TC) (pooled plasma)” value (Golden Syrian; HFD, 5 mpk/d, n 3)?
**A.** −21 ± 10%

**Q.** What about the “LDL-C (%) (FPLC TC) (pooled plasma)” value (Golden Syrian; HFD, 10 mpk/d, n 3) of the same compound?
**A.** −15 ± 16%

**Q.** And the “LDL-C (%) (FPLC TC) (pooled plasma)” value (Golden Syrian; HFD, 20 mpk/d, n 3)?
**A.** −40 ± 7%

**Q.** What about the “ALT (3 × ULN)” value (Golden Syrian; [3]) of the same compound?
**A.** 0/3

**Q.** What about the “AST (3 × ULN)” value (Golden Syrian; [3]) of the same compound?
**A.** 0/3

**Q.** What about the “LDL-C (%) (FPLC TC) (pooled plasma)” value (Golden Syrian; HFD, 40 mpk/d, n 3 (second HFD 40 mpk/d line)) of the same compound?
**A.** −26 ± 12%

**Q.** And the “LDL-C (%) (FPLC TC) (pooled plasma)” value (Golden Syrian; HFD, 40 mpk/d, n 3, value marked (n = 1))?
**A.** −47%
